Measurements from BindingDB's records for doi:10.1007/s002130100844 (Case Western Reserve University, 2001).
Where “and” joins values, the source holds several entries; their conditions need not be identical. Equal entries are not always repeated.

What was measured:
[1] = biological target: Beta-2 adrenergic receptor (Homo sapiens, UniProt P07550)
D(4) dopamine receptor = D(4) dopamine receptor (Rattus norvegicus, UniProt P30729)
[2] = biological target: 5-hydroxytryptamine receptor 1E (Homo sapiens, UniProt P28566)
[3] = biological target: Alpha-2A adrenergic receptor (Homo sapiens, UniProt P08913)
[4] = biological target: 5-hydroxytryptamine receptor 5A (Homo sapiens, UniProt P47898)
D(1A) dopamine receptor = D(1A) dopamine receptor (Homo sapiens, UniProt P21728)
[5] = biological target: 5-hydroxytryptamine receptor 2A (Rattus norvegicus, UniProt P14842)
[6] = biological target: 5-hydroxytryptamine receptor 7 (Homo sapiens, UniProt P34969)
Mu-type opioid receptor = Mu-type opioid receptor (Homo sapiens, UniProt P35372)
[7] = biological target: Sodium-dependent noradrenaline transporter (Homo sapiens, UniProt P23975)
[8] = biological target: 5-hydroxytryptamine receptor 1D (Homo sapiens, UniProt P28221)
[9] = biological target: Beta-1 adrenergic receptor (Homo sapiens, UniProt P08588)
[10] = biological target: 5-hydroxytryptamine receptor 2C (Rattus norvegicus, UniProt P08909)
[11] = biological target: Kappa-type opioid receptor (Homo sapiens, UniProt P41145)
[12] = biological target: Muscarinic acetylcholine receptor M4 (Homo sapiens, UniProt P08173)
[13] = biological target: Alpha-1B adrenergic receptor (Homo sapiens, UniProt P35368)
[14] = biological target: Gamma-aminobutyric acid type B receptor subunit 1 (UniProt Q9Z0U4)
[15] = biological target: Muscarinic acetylcholine receptor M1 (Homo sapiens, UniProt P11229)
Vasopressin V1b receptor = Vasopressin V1b receptor (Homo sapiens, UniProt P47901)
[16] = biological target: Muscarinic acetylcholine receptor M5 (Homo sapiens, UniProt P08912)
[17] = biological target: Delta-type opioid receptor (Homo sapiens, UniProt P41143)
D(2) dopamine receptor = D(2) dopamine receptor (Rattus norvegicus, UniProt P61169)
[18] = biological target: Sodium-dependent dopamine transporter (Bos taurus, UniProt P27922)
[19] = biological target: Muscarinic acetylcholine receptor M3 (Homo sapiens, UniProt P20309)
D(1B) dopamine receptor = D(1B) dopamine receptor (Homo sapiens, UniProt P21918)
[20] = biological target: Glutamate receptor ionotropic, NMDA 1 (Rattus norvegicus, UniProt P35439)
[21] = biological target: Alpha-2B adrenergic receptor (Homo sapiens, UniProt P18089)
[22] = biological target: Sodium-dependent serotonin transporter (Homo sapiens, UniProt P31645)
[23] = biological target: Alpha-2C adrenergic receptor (Homo sapiens, UniProt P18825)
[24] = biological target: Alpha-1A adrenergic receptor (Homo sapiens, UniProt P35348)
Sequence of Alpha-1A adrenergic receptor (P35348 whole entry): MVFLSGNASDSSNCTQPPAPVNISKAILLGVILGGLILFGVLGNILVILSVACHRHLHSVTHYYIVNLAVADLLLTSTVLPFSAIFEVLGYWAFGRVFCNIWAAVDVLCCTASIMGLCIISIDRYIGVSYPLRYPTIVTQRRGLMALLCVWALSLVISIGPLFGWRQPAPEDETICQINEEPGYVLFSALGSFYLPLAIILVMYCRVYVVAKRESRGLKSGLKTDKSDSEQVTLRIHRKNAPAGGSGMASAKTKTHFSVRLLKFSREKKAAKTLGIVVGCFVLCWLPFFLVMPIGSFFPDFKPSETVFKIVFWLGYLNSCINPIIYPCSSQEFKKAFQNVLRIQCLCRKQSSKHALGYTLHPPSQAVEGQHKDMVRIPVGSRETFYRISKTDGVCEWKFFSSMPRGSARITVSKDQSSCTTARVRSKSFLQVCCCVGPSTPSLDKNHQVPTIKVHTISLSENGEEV

Sequence of Alpha-2A adrenergic receptor (P08913 whole entry): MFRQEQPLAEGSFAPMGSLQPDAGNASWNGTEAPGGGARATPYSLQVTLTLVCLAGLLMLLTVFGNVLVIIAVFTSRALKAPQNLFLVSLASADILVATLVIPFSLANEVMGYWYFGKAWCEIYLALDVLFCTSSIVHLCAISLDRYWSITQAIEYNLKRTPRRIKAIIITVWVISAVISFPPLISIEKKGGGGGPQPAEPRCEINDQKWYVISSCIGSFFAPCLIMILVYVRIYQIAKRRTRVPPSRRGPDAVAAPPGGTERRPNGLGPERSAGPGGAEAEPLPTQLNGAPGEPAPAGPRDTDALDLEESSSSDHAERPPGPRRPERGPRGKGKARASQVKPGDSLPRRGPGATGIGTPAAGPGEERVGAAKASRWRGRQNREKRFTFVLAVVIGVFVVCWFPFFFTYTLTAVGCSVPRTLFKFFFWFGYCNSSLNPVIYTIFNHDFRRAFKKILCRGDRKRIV
Sequence of Alpha-2C adrenergic receptor (P18825 whole entry): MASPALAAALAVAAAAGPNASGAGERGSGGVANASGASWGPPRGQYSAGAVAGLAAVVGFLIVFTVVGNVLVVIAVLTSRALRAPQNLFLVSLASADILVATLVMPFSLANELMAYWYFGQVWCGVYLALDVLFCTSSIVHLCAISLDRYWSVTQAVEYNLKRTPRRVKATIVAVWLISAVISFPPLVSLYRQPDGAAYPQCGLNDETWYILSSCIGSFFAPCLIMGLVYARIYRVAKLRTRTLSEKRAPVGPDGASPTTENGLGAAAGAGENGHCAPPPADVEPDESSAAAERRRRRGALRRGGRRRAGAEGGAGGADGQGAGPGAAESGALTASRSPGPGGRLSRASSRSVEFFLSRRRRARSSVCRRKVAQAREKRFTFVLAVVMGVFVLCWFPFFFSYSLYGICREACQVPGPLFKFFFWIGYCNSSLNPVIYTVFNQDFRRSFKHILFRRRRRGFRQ
Sequence of Muscarinic acetylcholine receptor M3 (P20309 whole entry): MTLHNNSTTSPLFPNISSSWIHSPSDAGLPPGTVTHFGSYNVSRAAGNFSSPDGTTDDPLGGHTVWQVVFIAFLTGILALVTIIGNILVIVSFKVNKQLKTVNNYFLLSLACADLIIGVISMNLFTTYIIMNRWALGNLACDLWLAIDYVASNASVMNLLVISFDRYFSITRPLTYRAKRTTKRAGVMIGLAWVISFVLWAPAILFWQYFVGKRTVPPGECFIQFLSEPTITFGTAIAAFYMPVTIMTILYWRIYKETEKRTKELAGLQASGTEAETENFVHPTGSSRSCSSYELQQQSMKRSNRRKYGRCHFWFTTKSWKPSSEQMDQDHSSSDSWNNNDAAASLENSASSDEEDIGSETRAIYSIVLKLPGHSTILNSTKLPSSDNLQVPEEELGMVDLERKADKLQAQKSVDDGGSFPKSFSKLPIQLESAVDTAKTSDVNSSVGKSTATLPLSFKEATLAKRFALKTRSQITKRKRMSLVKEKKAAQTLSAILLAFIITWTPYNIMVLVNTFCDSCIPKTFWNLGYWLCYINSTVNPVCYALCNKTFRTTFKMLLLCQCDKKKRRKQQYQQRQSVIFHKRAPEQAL
Sequence of Alpha-2B adrenergic receptor (P18089 whole entry): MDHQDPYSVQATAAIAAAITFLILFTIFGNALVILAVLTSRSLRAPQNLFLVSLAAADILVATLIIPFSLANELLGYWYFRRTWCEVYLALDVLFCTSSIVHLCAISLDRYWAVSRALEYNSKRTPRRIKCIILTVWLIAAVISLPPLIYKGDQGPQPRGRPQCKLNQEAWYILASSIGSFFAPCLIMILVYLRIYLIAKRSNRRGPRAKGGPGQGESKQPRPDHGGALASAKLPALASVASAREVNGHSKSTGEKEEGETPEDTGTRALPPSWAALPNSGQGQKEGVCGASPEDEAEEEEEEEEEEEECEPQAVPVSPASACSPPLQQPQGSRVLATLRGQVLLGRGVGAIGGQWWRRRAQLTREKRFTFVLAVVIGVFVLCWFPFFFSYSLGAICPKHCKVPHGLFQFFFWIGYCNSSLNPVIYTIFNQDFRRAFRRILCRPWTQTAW
Sequence of Beta-1 adrenergic receptor (P08588 whole entry): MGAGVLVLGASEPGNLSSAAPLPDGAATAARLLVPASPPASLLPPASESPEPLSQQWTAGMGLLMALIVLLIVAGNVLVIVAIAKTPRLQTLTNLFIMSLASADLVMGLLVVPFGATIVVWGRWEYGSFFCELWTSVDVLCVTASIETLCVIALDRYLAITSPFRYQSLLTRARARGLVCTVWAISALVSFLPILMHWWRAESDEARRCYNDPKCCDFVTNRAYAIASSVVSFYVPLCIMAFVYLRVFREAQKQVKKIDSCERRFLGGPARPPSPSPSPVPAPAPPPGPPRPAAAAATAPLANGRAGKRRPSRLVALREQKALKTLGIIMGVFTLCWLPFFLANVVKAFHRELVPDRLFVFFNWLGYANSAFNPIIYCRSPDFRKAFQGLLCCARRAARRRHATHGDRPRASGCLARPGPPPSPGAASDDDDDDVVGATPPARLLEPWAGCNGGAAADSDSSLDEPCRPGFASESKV
Sequence of Muscarinic acetylcholine receptor M1 (P11229 whole entry): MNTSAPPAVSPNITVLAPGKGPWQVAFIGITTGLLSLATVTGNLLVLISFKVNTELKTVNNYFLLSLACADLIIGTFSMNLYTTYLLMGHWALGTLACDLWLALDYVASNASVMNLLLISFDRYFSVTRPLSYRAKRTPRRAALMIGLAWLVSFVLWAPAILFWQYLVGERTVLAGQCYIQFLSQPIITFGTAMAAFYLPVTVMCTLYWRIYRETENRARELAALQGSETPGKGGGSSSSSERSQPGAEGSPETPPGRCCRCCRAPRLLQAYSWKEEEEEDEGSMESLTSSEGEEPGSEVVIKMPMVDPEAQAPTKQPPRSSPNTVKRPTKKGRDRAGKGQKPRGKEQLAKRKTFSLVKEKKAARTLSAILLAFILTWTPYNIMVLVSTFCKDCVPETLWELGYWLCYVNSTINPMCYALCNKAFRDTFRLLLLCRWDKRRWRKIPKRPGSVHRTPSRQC
Sequence of 5-hydroxytryptamine receptor 7 (P34969 whole entry): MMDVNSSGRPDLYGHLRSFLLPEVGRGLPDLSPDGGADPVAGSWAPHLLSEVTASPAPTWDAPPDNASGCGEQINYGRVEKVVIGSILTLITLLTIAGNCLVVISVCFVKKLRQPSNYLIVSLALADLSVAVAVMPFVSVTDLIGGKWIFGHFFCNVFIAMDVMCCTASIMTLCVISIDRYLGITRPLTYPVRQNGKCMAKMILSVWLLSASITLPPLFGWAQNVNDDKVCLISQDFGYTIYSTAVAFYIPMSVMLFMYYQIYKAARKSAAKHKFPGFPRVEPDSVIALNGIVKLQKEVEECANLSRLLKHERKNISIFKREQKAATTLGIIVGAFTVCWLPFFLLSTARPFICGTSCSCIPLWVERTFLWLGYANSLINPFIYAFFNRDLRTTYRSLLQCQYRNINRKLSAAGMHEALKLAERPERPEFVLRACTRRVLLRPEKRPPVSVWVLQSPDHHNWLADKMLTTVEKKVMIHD
Sequence of Muscarinic acetylcholine receptor M5 (P08912 whole entry): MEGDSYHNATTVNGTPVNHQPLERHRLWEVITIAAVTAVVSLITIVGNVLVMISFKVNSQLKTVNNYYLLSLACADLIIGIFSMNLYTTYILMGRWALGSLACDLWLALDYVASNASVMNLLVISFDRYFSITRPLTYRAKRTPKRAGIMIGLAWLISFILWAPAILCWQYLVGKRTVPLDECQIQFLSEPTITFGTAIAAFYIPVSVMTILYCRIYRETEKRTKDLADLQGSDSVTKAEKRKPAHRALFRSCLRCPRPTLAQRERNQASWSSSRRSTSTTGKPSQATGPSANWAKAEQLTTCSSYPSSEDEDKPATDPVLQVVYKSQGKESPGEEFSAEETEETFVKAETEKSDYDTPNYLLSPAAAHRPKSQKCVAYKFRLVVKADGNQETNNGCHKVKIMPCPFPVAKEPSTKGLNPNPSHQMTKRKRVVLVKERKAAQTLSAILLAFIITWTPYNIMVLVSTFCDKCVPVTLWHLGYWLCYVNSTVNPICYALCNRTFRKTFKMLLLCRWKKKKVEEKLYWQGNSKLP
Sequence of 5-hydroxytryptamine receptor 1D (P28221 whole entry): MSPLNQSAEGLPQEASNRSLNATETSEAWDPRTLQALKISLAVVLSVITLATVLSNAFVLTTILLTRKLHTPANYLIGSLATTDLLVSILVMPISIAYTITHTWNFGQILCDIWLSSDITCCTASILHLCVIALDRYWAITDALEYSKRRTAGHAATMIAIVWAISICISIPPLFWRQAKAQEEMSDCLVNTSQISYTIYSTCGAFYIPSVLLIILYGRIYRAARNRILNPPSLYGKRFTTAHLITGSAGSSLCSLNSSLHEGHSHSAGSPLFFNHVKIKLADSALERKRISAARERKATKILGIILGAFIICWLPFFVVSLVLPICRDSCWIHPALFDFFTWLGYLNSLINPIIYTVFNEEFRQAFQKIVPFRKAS

SMILES: CC(CF)NCC(O)COc1cccc2[nH]c3ccccc3c12 [Fluorocarazolol,(S)]
- Ki [1]: 0.138 nM and 0.079 nM
- Ki (D(4) dopamine receptor): > 10 µM
- Ki [2]: > 10 µM
- Ki [3]: 3.36 µM and 2.87 µM
- Ki [4]: > 10 µM
- Ki (D(1A) dopamine receptor): > 10 µM
- Ki [5]: > 10 µM
- Ki [6]: 7.07 µM and 6.4 µM
- Ki (Mu-type opioid receptor): > 10 µM
- Ki [7]: > 10 µM
- Ki [8]: 3.28 µM and 3.09 µM
- Ki [9]: 0.00045 µM and 0.000114 µM
- Ki [10]: > 10 µM
- Ki [11]: > 10 µM
- Ki [12]: 5.41 µM and > 10 µM
- Ki [13]: 4.6 µM and 0.677 µM
- Ki [14]: > 10 µM
- Ki [15]: 2.73 µM and 1.75 µM
- Ki (Vasopressin V1b receptor): > 10 µM
- Ki [16]: 4.88 µM and 5.89 µM
- Ki [17]: > 10 µM
- Ki (D(2) dopamine receptor): > 10 µM
- Ki [18]: > 10 µM
- Ki [19]: > 10 µM and 1.59 µM
- Ki (D(1B) dopamine receptor): > 10 µM
- Ki [20]: > 10 µM
- Ki [21]: > 10 µM and 8.85 µM
- Ki [22]: > 10 µM
- Ki [23]: 1.89 µM and 4.4 µM
- Ki [24]: 3.2 µM and 0.611 µM
